According to patent EP4647428A1, “COMPOUND CONTAINING 2-METHYL-2-(3-(PIPERIDIN-3-YL)PHENOXY)-2-METHYLPROPANAMIDE SKELETON” (Jiangsu Mingsheng Jutai Biotechnology Co. Ltd, priority 2023, dated 2024):

System: SW480
Assay: CCK8 cell inhibition test on SW480 cells
Format: cell-based
Conditions: CCK-8, SW480 cells, 24 hours incubation at 37°C, compound 20 µM to 0.15625 µM in DMEM (2% FBS)
Description: Cells were digested, counted, and plated in a 96-well plate (flat-bottomed, transparent) with 10,000 cells/100 µl DMEM (10% FBS) per well . • 2. Observe the cell status on the next day and start adding drugs after the cells have fully adhered to the wall; • 3. Dilute the compound in DMEM (2% FBS) in a serial dilution format to concentrations of 20 µM, 10 µM, 5 µM, 2.5 µM, 1.25 µM, 0.625 µM, 0.3125 µM, 0.15625 µM, and 0 µM (with equal volume of DMSO). • 4. Add 100 µl of the above compounds at different concentrations to each well. Repeat for each concentration gradient in duplicate. Leave three blank wells (add only DMEM 2% FBS culture medium without cells) . • 5. Incubate at 37°C for 24 hours . • 6. Add 10 µl of CCK-8 Enhanced Solution to each well. Since the amount of CCK-8 added to each well is relatively small, there may be errors due to the reagent sticking to the well wall. It is recommended to gently tap the culture plate after adding the reagent to help mix it. • 7. Incubate in the incubator for 0.5-4 hours: The amount of formazan formed varies depending on the cell type. In most cases, incubation for 1 hour is sufficient. If color development is insufficient, continue incubation to confirm optimal conditions. • 8. Measure the absorbance at 450nm and 600nm (excluding interference from the reagent background color and the absorbance of the well plate itself); • 9. The final absorbance value is OD450nm-OD600nm, and the inhibition rate is calculated; Inhibition rate = [(Ac−As)/(Ac−Ab)] × 100% [formula] • As: absorbance of the experimental well (culture medium containing cells, CCK-8, and drug to be tested); • Ac: absorbance of control wells (culture medium containing cells, CCK-8, and no test drug); • Ab: absorbance of blank wells (culture medium without cells, test drugs, or CCK-8).

| Compound | IC50 (Homo sapiens) [µM] | further results |
| --- | --- | --- |
| CC(C)(Oc1cccc(C2CCCN(S(=O)(=O)c3cccc(-c4cn[nH]c4)c3)C2)c1)C(=O)NCC(=O)N1CCCC1CN (centres unmarked) [Compound 115-023, 2-(3-(1-((3-(1H-pyrazol-4-yl)phenyl)sulfonyl)piperidin-3-yl)phenoxy)-N-(2-(2-(aminomethyl)pyrrolidin-1-yl)-2-oxoethyl)-2-methylpropanamide] | 30.5 | – |
| CC(C)c1ccc(-c2cccc(S(=O)(=O)N3CCCC(c4cccc(OC(C)(C)C(=O)NS(=O)(=O)N5CCC[C@@H]5CN)c4)C3)c2)cc1 (stereo partly drawn) [Compound 115-017, N-(2-(R)-(Aminomethyl)pyrrolidin-1-yl)sulfonyl)-2-(3-(1-((4'-isopropyl-[1,1'-biphenyl]-3-yl)sulfonylpiperidin-3-yl)phenoxy)-2-methylpropionamide] | 10.6 | – |
| CC(C)(Oc1cccc(C2CCCN(C(=O)NCc3ccc(-c4cn[nH]c4)cc3)C2)c1)C(=O)NCC(=O)N1CCCC1CN (centres unmarked) [Compound 115-020, N-(4-(1H-pyrazol-4-yl)benzyl)-3-(3-((1-((2-(2-(aminomethyl)pyrrolidin-1-yl)-2-oxoethyl)amino)-2-methyl-1-oxopropanoyl)oxy)phenyl)piperidine-1-carboxamide] | – | SW480 IC50(µM): Inactive |
| CC(C)(Oc1cccc(C2CCCN(C(=O)NCCc3ccc(-c4cn[nH]c4)cc3)C2)c1)C(=O)NCC(=O)N1CCCC1CN (centres unmarked) [Compound 115-021, N-(4-(1H-pyrazol-4-yl)phenethyl)-3-(3-((1-((2-(2-(aminomethyl)pyrrolidin-1-yl)-2-oxoethyl)amino)-2-methyl-1-oxopropanoyl)oxy)phenyl)piperidine-1-carboxamide] | – | SW480 IC50(µM): Inactive |
| CC(C)c1ccc(-c2cncc(S(=O)(=O)N3CCCC(c4cccc(OC(C)(C)C(=O)NCC(=O)N5CCCC5CN)c4)C3)c2)cc1 (centres unmarked) [Compound 115-055, N-(2-(2-(Aminomethyl)pyrrolidin-1-yl)-2-oxoethyl)-2-(3-(1-((5-(4-isopropylphenyl)pyridin-3-yl)sulfonyl)piperidin-3-yl)phenoxy)-2-methylpropanamide] | 4.06 | – |
| CC(C)c1ccc(-c2cccc(S(=O)(=O)N3CCCC(c4cccc(OC(C)(C)C(=O)NCC(=O)N5CCCC5CN)c4)C3)n2)cc1 (centres unmarked) [Compound 115-052, N-(2-(2-(aminomethyl)pyrrolidin-1-yl)-2-oxoethyl)-2-(3-(1-((6-(4-isopropylphenyl)pyridin-2-yl)sulfonyl)piperidin-3-yl)phenoxy)-2-methylpropanamide] | ≤ 2.74 | – |
| CC(C)n1cc(-c2cccc(S(=O)(=O)N3CCCC(c4cccc(OC(C)(C)C(=O)NS(=O)(=O)c5ccc(C(F)(F)F)cc5)c4)C3)c2)cn1 (centres unmarked) [Compound 115-024, 2-(3-(1-((3-(1-isopropyl-1H-pyrazol-4-yl)phenyl)sulfonyl)piperidin-3-yl)phenoxy)-2-methyl-N-((4-(trifluoromethyl)phenyl)sulfonyl)propionamide] | 11.1 | – |
| CC(C)c1ccc(-c2cccc(S(=O)(=O)N3CCCC(c4cccc(OC(C)(C)C(=O)NS(=O)(=O)c5ccc(C(F)(F)F)cc5)c4)C3)c2)cc1 (centres unmarked) [Compound 115, reference compound] | 2.81 | – |
| CC(C)(Oc1cccc(C2CCCN(S(=O)(=O)c3ccc(-c4cn[nH]c4)cc3)C2)c1)C(=O)NS(=O)(=O)c1ccc(C(F)(F)F)cc1 (centres unmarked) [Compound 115-026, 2-(3-(1-((4-(1H-pyrazol-4-yl)phenyl)sulfonyl)piperidin-3-yl)phenoxy)-2-methyl-N-((4-(trifluoromethyl)phenyl)sulfonyl)propionamide] | – | SW480 IC50(µM): Inactive |
| CC(C)n1cc(-c2cccc(S(=O)(=O)N3CCCC(c4cccc(OC(C)(C)C(=O)NCC(=O)N5CCCC5CN)c4)C3)c2)cn1 (centres unmarked) [Compound 115-022, N-(2-(2-(Aminomethyl)pyrrolidin-1-yl)-2-oxoethyl)-2-(3-(1-((3-(1-isopropyl-1H-pyrazol-4-yl)phenyl)sulfonyl)piperidin-3-yl)phenoxy)-2-methylpropanamide] | 9.71 | – |
| N-(2-((S)-2-(2-aminoethyl)pyrrolidin-1-yl)-2-oxoethyl)-2-(3-(1-((4'-isopropyl-[1,1'-biphenyl]-3-yl)sulf onylpiperidin-3-yl)phenoxy)-2-methylpropanamide) [Compound 115-014] | – | IC50: 52.9 µM |
| CC(C)c1ccc(-c2ccc(CC(=O)N3CCCC(c4cccc(OC(C)(C)C(=O)NCC(=O)N5CCCC5CN)c4)C3)cc2)cc1 (centres unmarked) [Compound 115-031, N-(2-(2-(Aminomethyl)pyrrolidin-1-yl)-2-oxoethyl)-2-(3-(1-(2-(4'-isopropyl-[1,1'-biphenyl]-4-yl)acetyl)piperidin-3-yl)phenoxy)-2-methylpropanamide] | 6.99 | – |
| CC(C)c1ccc(-c2cccc(S(=O)(=O)N3CCC=C(c4cccc(OC(C)(C)C(=O)NCC(=O)N5CCCC5CN)c4)C3)c2)cc1 (centres unmarked) [Compound 115-049, N-(2-(2-(Aminomethyl)pyrrolidin-1-yl)-2-oxoethyl)-2-(3-(1-((4'-isopropyl-[1,1'-biphenyl]-3-yl)sulfonyl)-1,2,5,6-tetrahydropyridin-3-yl)phenoxy)-2-methylpropanamide] | ≤ 2.65 | – |
| CC(C)c1ccc(-c2ccc(C(=O)N3CCCC(c4cccc(OC(C)(C)C(=O)NCC(=O)N5CCCC5CN)c4)C3)cc2)cc1 (centres unmarked) [Compound 115-030] | 3.12 to 6.25 | – |
| CC(C)c1ccc(-c2cccc(S(=O)(=O)N3CCCC(c4cccc(OC(C)(C)C(=O)NCC(=O)N5CCC[C@@H]5CN)c4)C3)c2)cc1 (some centres unmarked) [Compound 115-011] | 3.12 to 6.25 | – |
| CC(C)(Oc1cccc(C2CCCN(C(=O)c3ccc(-c4cn[nH]c4)cc3)C2)c1)C(=O)NCC(=O)N1CCCC1CN (centres unmarked) [Compound 115-027, 2-(3-(1-(4-(1H-pyrazol-4-yl)benzoyl)piperidin-3-yl)phenoxy)-N-(2-(2-(aminomethyl)pyrrolidin-1-yl)-2-oxoethyl)-2-methylpropanamide] | 23.1 | – |
| CC(C)(Oc1cccc(C2CCCN(S(=O)(=O)c3cccc(-c4cn[nH]c4)c3)C2)c1)C(=O)NS(=O)(=O)c1ccc(C(F)(F)F)cc1 (centres unmarked) [Compound 115-025, 2-(3-(1-((3-(1H-pyrazol-4-yl)phenyl)sulfonyl)piperidin-3-yl)phenoxy)-2-methyl-N-((4-(trifluoromethyl)phenyl)sulfonyl)propionamide] | – | SW480 IC50(µM): Inactive |
| CC(C)(Oc1cccc(C2CCCN(C(=O)Cc3ccc(-c4cn[nH]c4)cc3)C2)c1)C(=O)NCC(=O)N1CCCC1CN (centres unmarked) [Compound 115-028, 2-(3-(1-(2-(4-(1H-pyrazol-4-yl)phenyl)acetyl)piperidin-3-yl)phenoxy)-N-(2-(2-(aminomethyl)pyrrolidin-1-yl)-2-oxoethyl)-2-methylpropanamide] | 15.7 | – |
| CC(C)(Oc1cccc(C2CCCN(C(=O)CCc3ccc(-c4cn[nH]c4)cc3)C2)c1)C(=O)NCC(=O)N1CCCC1CN (centres unmarked) [Compound 115-029, 2-(3-(1-(3-(4-(1H-pyrazol-4-yl)phenyl)propionyl)piperidin-3-yl)phenoxy)-N-(2-(2-(aminomethyl)pyrrolidin-1-yl)-2-oxoethyl)-2-methylpropionamide] | 20.8 | – |
| CC(C)c1ccc(-c2cccc(S(=O)(=O)N3CCCC(c4cccc(OC(C)(C)C(=O)NCC(=O)N5CC[C@H](CN)C5)c4)C3)c2)cc1 (some centres unmarked) [Compound 115-013] | 3.12 | – |
